8 compounds from ChEMBL document CHEMBL1201862, “PubChem BioAssay data set” (2004) can be followed below.

The structures appear in SMILES notation.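 1) Cells in 96-well plates. 2) Compound, 48 h, 5 concentrations. 3) Linear interpolation between surrounding doses. 4) Unreached endpoint = highest concentration. The concentration for 50% growth inhibition is given as GI50.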 Active and inactive are the calls of the source. Cut-off read from the data, not from the text of the source: active = GI50 up to about 1.1 µM and inactive = higher.

Among the test systems are A549; CCRF-CEM; HCT-116; HCT-15; HL-60; HT-29; IGROV-1; MOLT-4; Malme-3M; NCI-H226; OVCAR-5; SF-539; SK-MEL-5; SK-OV-3; SNB-19; SNB-75; U-251; UACC-62; UO-31; CAKI-1.
Holding throughout (assay): NCI tumour cell line growth inhibition, 48 h

With `O=[N+]([O-])c1cccc2c1[nH]c1c(-c3ccccc3)nccc12`, the GI50 is 2.67 µM (inactive) in the assay with A549; 1.68 µM (inactive) with CCRF-CEM; 2.39 µM (inactive) with HCT-116; 2.61 µM in the assay with HCT-15; 1.63 µM (inactive) in the assay on HL-60; 1.58 µM (inactive) in the assay on HT-29. The GI50 is 1.8 µM (inactive) in the assay on IGROV-1; 1.71 µM (inactive) in the assay on MOLT-4; 2.24 µM (inactive) in the assay on Malme-3M; 1.58 µM (inactive) in the assay on NCI-H226; 3.9 µM (inactive) in the assay on OVCAR-5; 3.19 µM (inactive) in the assay on SF-539. The GI50 in the assay on SK-MEL-5 is 1.53 µM (inactive); in the assay on SK-OV-3 it was 2.01 µM (inactive); in the assay on SNB-19, 3.19 µM (inactive); in the assay with SNB-75, 2.4 µM (inactive); with U-251, 2.51 µM (inactive); with UACC-62, 1.74 µM (inactive). For the same compound, the GI50 in the assay with UO-31 was 1.11 µM (active).
As for `O=C1C2CN(Cc3ccccc3)CC1CN(CC1CC1)C2`, the GI50 in the assay with A549 was > 100 µM (inactive); in the assay on CAKI-1 it was > 100 µM (inactive); with CCRF-CEM, > 100 µM (inactive); with HCT-15, more than 100 µM; in the assay with HL-60, > 100 µM (inactive); with HT-29 it was > 100 µM (inactive). In addition, the GI50 with IGROV-1, in the assay with MOLT-4, in the assay with Malme-3M, in the assay on NCI-H226, in the assay on OVCAR-5 and in the assay on SF-539 was > 100 µM (inactive) throughout. The GI50 in the assay on SK-MEL-5, in the assay on SK-OV-3, in the assay on SNB-19, in the assay with SNB-75, in the assay on U-251 and in the assay with UACC-62 was > 100 µM (inactive) throughout. In addition, in the assay on UO-31, the GI50 was > 100 µM (inactive).
For `COc1ccc2oc(=N)c(C(=O)Nc3ccccc3)cc2c1`, the GI50 in the assay with A549 was 34.3 µM (inactive); in the assay on CAKI-1 it was 5.61 µM (inactive); in the assay with CCRF-CEM, 7.23 µM (inactive); in the assay with HCT-116, 25.7 µM (inactive); in the assay on HCT-15 it was 31 µM; in the assay with HT-29, 64.6 µM (inactive). The GI50 in the assay with IGROV-1 is 17.9 µM (inactive); in the assay on MOLT-4, 13.8 µM (inactive); with Malme-3M, 15.9 µM (inactive); in the assay with NCI-H226, 31.1 µM (inactive); with OVCAR-5, 36.7 µM (inactive); with SF-539, 20.3 µM (inactive). Besides, the GI50 in the assay on SK-MEL-5 is 25.8 µM (inactive); in the assay with SK-OV-3, 10.9 µM (inactive); in the assay on SNB-19 it was 25.2 µM (inactive); in the assay with SNB-75, 10.4 µM (inactive); in the assay on U-251, 19.1 µM (inactive); with UO-31, 45 µM (inactive).
`CC(=O)NC1C(O)CC(OCCCSCCN)(C(=O)O)OC1C(O)C(O)CO` (configuration not stated): the GI50 in the assay on A549 was > 100 µM (inactive); in the assay with CAKI-1, > 100 µM (inactive); in the assay with CCRF-CEM, > 100 µM (inactive); in the assay with HCT-116, > 100 µM (inactive); with HCT-15, more than 100 µM; in the assay on HL-60, > 100 µM (inactive). For the same compound, the GI50 in the assay on HT-29, with IGROV-1, in the assay on MOLT-4, in the assay on Malme-3M, in the assay on NCI-H226 and in the assay with OVCAR-5 was > 100 µM (inactive) in each case. In addition, the GI50 in the assay on SF-539, with SK-MEL-5, in the assay with SNB-19, with SNB-75 and in the assay on U-251 was > 100 µM (inactive) each time.
For `OCC#CCNCl`, the GI50 in the assay on A549 is > 100 µM (inactive); in the assay with CCRF-CEM, > 100 µM (inactive); with HCT-116, > 100 µM (inactive); in the assay with HCT-15, more than 100 µM; in the assay on HL-60, > 100 µM (inactive); in the assay on HT-29, > 28.1 µM (inactive). Moreover, the GI50 with IGROV-1, in the assay on MOLT-4, in the assay with Malme-3M, in the assay with NCI-H226, in the assay with OVCAR-5 and with SF-539 was > 100 µM (inactive) in each case. Also, the GI50 in the assay on SK-MEL-5, with SK-OV-3, in the assay with SNB-19, with SNB-75, with U-251 and with UACC-62 was > 100 µM (inactive) in each case. For the same compound, the GI50 in the assay with UO-31 is > 100 µM (inactive).
Turning to `COC(=O)C(Cc1cc(OC)c(OC)c(OC)c1)(NC(=O)c1ccccc1)P(=O)(OC)OC` (configuration not stated), the GI50 is > 100 µM (inactive) in the assay with A549; > 100 µM (inactive) with CAKI-1; > 100 µM (inactive) in the assay with CCRF-CEM; > 100 µM (inactive) with HCT-116; more than 100 µM with HCT-15; > 100 µM (inactive) in the assay with HL-60. The GI50 in the assay with HT-29, in the assay with IGROV-1, in the assay with MOLT-4, in the assay on NCI-H226, in the assay with OVCAR-5 and in the assay with SF-539 was > 100 µM (inactive) each time. Moreover, the GI50 in the assay on SK-MEL-5, in the assay on SK-OV-3, in the assay on SNB-19, in the assay with SNB-75, with U-251 and in the assay with UACC-62 was > 100 µM (inactive) throughout. The GI50 in the assay on UO-31 is > 100 µM (inactive).
As for `CCOC(=O)C(C#N)(Cc1c[nH]c2ccccc12)NC(C)=O` (configuration not stated), the GI50 with CAKI-1 is > 100 µM (inactive); in the assay with CCRF-CEM it was > 100 µM (inactive); with HCT-116, > 100 µM (inactive); in the assay on HCT-15 it was more than 100 µM; in the assay with HL-60 it was > 100 µM (inactive); with HT-29 it was > 100 µM (inactive). Besides, the GI50 in the assay with IGROV-1, in the assay with MOLT-4, with Malme-3M, in the assay with NCI-H226, in the assay with OVCAR-5 and in the assay with SK-MEL-5 was > 100 µM (inactive) each time. The GI50 in the assay with SK-OV-3, in the assay on SNB-75, in the assay on U-251, in the assay with UACC-62 and in the assay with UO-31 was > 100 µM (inactive) each time.
Turning to `O=C(O)CNc1ccc(Cl)c(Cl)c1`, the GI50 is 32.1 µM (inactive) in the assay on A549; 17.9 µM (inactive) in the assay with CAKI-1; 31.6 µM (inactive) with CCRF-CEM; 19.2 µM (inactive) in the assay on HCT-116; 8.83 µM in the assay with HCT-15; 24 µM (inactive) in the assay on HL-60. For the same compound, the GI50 in the assay on HT-29 is 40.6 µM (inactive); in the assay on IGROV-1 it was 1.1 µM (active); in the assay on MOLT-4 it was 29.6 µM (inactive); in the assay with NCI-H226 it was 27.5 µM (inactive); with OVCAR-5 it was 40.9 µM (inactive); in the assay on SF-539 it was 33.5 µM (inactive). Also, the GI50 in the assay with SK-MEL-5 is 26.5 µM (inactive); with SK-OV-3, 37.8 µM (inactive); with SNB-19 it was 34.5 µM (inactive); in the assay on SNB-75 it was 26.6 µM (inactive); with U-251, 31.1 µM (inactive); in the assay on UACC-62, 28.1 µM (inactive). Further, the GI50 in the assay with UO-31 was 24.9 µM (inactive).
